Experimental data from patent publication US20240067677A1, “Interference Peptides As Inhibitors Of Interactions Related To Ampar Endocytosis” (priority 2020, published 2024).
Residue numbers refer to the chain shown, from its start. Entries after “also recorded” stand apart in the source; their conditions may differ. Square brackets hold non-standard residues; d marks the D form. Ends that are not written are not given here. pY = N[C@@H](Cc1ccc(OP(=O)(O)O)cc1)C(=O)O

How the values were obtained:
[1] = test system: scopolamine (0.7 mg/kg)-treated rats; test: Y-maze test, scopolamine-induced cognitive impairment; conditions: peptide 15 μM; Sco 0.7 mg/kg
Description: (§1) At the beginning of the experiment, there have been selected 30 adult male rats (Cantacuzino Institute™, Romania) having an average weight of 350 g (±10 g) and four months old. The animals were housed in the animal unit under controlled conditions of light (a 12-h cycle starting at 07:00 h) and temperature (22° C.). Food and water were provided ad libitum throughout the experiment. Rats were randomly divided into 6 groups (n=5 animals/group) as follows: Control group (sham-operated), Scopolamine (Sco) group (sham-operated, Sco: 0,7 mg/kg b.w., i.p., Sigma-Aldrich™, Darmstadt, Germany), and groups treated with TAT-p3Y, TAT-3Y, TAT-p3Ysh3, and TAT-pfin4 (15pIVI, GenScript™) received scopolamine. […] Scopolamine hydrobromide (Sco, 0.7 mg/kg) was administered 30 min before behavioral in vivo approaches.
(§2) All surgical procedures were conducted under aseptic conditions, under sodium pentobarbital (50 mg/kg b.w., i.p., Sigma-Aldrich™, Darmstadt, Germany) anesthesia. Rats were mounted in the stereotaxic apparatus with the nose oriented 11° below horizontal zero plane. Two plastic guide cannulas (Portex™, 0.9 mm outer diameter) were bilaterally implanted stereotaxically in the dorsal hippocampus according to the following coordinates: A/P=3.6 mm, M/L=3.1 mm and D/V=2.4 mm. The cannulas were positioned with dental cement (Adhesor™ SpofaDental™) and secured by three stainless steel screw implanted into the skull. After surgery, the rats were isolated in separate cages and protected with a large spectrum antibiotic. Animals were given two weeks to recover from surgery and were handled daily during this period.
Spontaneous alternation behavior was evaluated in a single-session Y-maze, as previously described by Jackson Postu et al [63]. In the present study, the Y-maze used was built of Plexiglas having the following dimensions: 25 cm high, 35 cm long, 10 cm wide for each arm, and a central area in an equilateral triangular shape. […] The percentage of the involuntary alternation was determined according to the formula:

[2] = test system: scopolamine (0.7 mg/kg)-treated rats; test: Elevated plus-maze test; conditions: for number of entries in the open arms vs. Sco-alone treated rats / percentage of the open arms time vs. scopolamine-alone treated rats: peptide 15 μM, Sco 0.7 mg/kg
Description: At the beginning of the experiment, there have been selected 30 adult male rats (Cantacuzino Institute™, Romania) having an average weight of 350 g (±10 g) and four months old. The animals were housed in the animal unit under controlled conditions of light (a 12-h cycle starting at 07:00 h) and temperature (22° C.). Food and water were provided ad libitum throughout the experiment. […] Scopolamine hydrobromide (Sco, 0.7 mg/kg) was administered 30 min before behavioral in vivo approaches.
as §2
Behavior in the elevated plus-maze test (E.P.M.) is utilized to assess exploration, anxiety and motor behavior. Each rat was placed in the center of the maze facing one closed arm. […] The percentages of time spent in the open arms were calculated using the formula:
(time spent in the open arms/time spent in all arms)×100. • Forced Swimming Test

[3] = test system: scopolamine (0.7 mg/kg)-treated rats; test: Radial arm-maze test, scopolamine-induced cognitive impairment; conditions: for number of working memory errors vs. scopolamine-alone treated rats: peptide 15 μM into dorsal hippocampus; for number of working memory errors vs. scopolamine-alone treated rats / number of reference memory errors vs. scopolamine-alone treated rats: Sco 0.7 mg/kg; for number of reference memory errors vs. scopolamine-alone treated rats: peptide 15 μM
Description: as §1, §2
As described before by Olton and Samuelson and Postu et al [63], using a radial arm maze test (RAM), the spatial memory was determined for one week.
The maze comprised eight arms marked from 1 to 8 (48 cm×12 cm), with a radial extension of 32 cm in diameter from the central area, and it had 50 mg food pellets at the end of arms 1, 2, 4, 5, and 7. Four days of habituation sessions were performed. Rats were instructed to move to the end of the arms and to eat the bait during 5 min sessions. After habituation, only one trial per day was granted to all rats. For working and reference memory tasks, each rat was individually placed in the center of the maze.

[4] = molecular target: T1, GST-GluA2-STEP32 C/S complex (Homo sapiens, UniProt P54829, C496S); test: GST-GluA2-STEP32 pulldown (SDS-PAGE / western blot); format: binding
T1 construct: made in house; host or cells: STEP32 C/S: E. coli BL21(DE3); GST-GluA2: E. coli BL21
T1 sequence (P54829 282-563 C496S): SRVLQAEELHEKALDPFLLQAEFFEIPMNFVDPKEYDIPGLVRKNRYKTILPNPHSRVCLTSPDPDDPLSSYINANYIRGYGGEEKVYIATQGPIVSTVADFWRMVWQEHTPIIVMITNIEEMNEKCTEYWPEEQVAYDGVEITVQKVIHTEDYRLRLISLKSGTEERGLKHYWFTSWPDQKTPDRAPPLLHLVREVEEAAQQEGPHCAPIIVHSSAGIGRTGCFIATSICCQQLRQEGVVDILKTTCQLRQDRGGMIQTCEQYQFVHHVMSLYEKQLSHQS
Description: Prior to binding and after contacting the beads with phosphorylated GST-GluA2, the beads were washed thoroughly with interaction buffer (25 mM HEPES, 150 mM NaCl, 1 mM MgCl2, 1% Triton™ X-100, 1 mM DTT, pH=7,5). Triton™ X-100 was used to avoid nonspecific binding and to minimize the risk of precipitation for any of the proteins. […] Beads were washed twice with wash buffer to remove excess STEP32 C/S. Results were analyzed using SDS-PAGE (FIG. 2A).

[5] = test system: scopolamine (0.7 mg/kg)-treated rats; test: Forced swimming test
Description: At the beginning of the experiment, there have been selected 30 adult male rats (Cantacuzino Institute™, Romania) having an average weight of 350 g (±10 g) and four months old. The animals were housed in the animal unit under controlled conditions of light (a 12-h cycle starting at 07:00 h) and temperature (22° C.). Food and water were provided ad libitum throughout the experiment. Rats were randomly divided into 6 groups (n=5 animals/group) as follows: Control group (sham-operated), Scopolamine (Sco) group (sham-operated, Sco: 0,7 mg/kg b.w., i.p., Sigma-Aldrich™, Darmstadt, Germany), and groups treated with TAT-p3Y, TAT-3Y, TAT-p3Ysh3, and TAT-pfin4 (15pIVI, GenScript™) received scopolamine. The doses of the peptides were chosen according to a previous report [60]. Scopolamine hydrobromide (Sco, 0.7 mg/kg) was administered 30 min before behavioral in vivo approaches. […]
The forced swimming test (F.S.T.) is used for assessing depressive-like responses [66]. The depressive-like response was assessed, basically using the same method described by Campos
et al. [67], but with modifications. […] During the test session, the following behavioral responses were recorded: (i) immobility (time spent floating with the minimal movements to keep the head above the water); and (ii) swimming (time spent with active swimming movements). • Statistical Analyses

[6] = molecular target: T2, STEP32 WT (Homo sapiens, UniProt P54829); test: In vitro dephosphorylation of pY876 of full length GluA2 by STEP32 WT (western blot)
T2 sequence (P54829 282-563): T1 sequence (P54829 282-563 C496S) with S215C
Description: GluA2-FL phosphorylated at Y876 site was immunoprecipitated from HEK293T cells overexpressing GluA2 and vSrc using anti-GluA2 antibodies and then submitted to in vitro dephosphorylation by purified STEP32 WT, in presence versus absence of TAT-phosphopeptides: TAT-p3Y, TAT-p3Y-sh3 and TAT-p-fin4. The dephosphorylation of the pY876 site of GluA2 FL was detected by western blotting using anti-pY876 antibodies and anti-GluA2 antibodies.
The results represent mean±SEM of three independent experiments.
Therefore, HEK293 cells were transfected with a pCMV-SPORT6-GRIA2 mammalian expression vector containing the cDNA of full length GluA2 (GluA2-FL). […] A sample consisting of immunoprecipitated GluA2 FL untreated with either STEP32 or peptides was also included into the study, as a control.

[7] = molecular target: T3, BRAG2-GluA2 complex (Homo sapiens, UniProt Q6DN90, E620K); test: BRAG2-GluA2 pulldown with GSH Sepharose-coupled GST-GluA2 (SDS-PAGE); format: binding
T3 construct: GST-GluA2: E. coli BL21
T3 sequence (Q6DN90 with tags, fused parts or gaps E620K): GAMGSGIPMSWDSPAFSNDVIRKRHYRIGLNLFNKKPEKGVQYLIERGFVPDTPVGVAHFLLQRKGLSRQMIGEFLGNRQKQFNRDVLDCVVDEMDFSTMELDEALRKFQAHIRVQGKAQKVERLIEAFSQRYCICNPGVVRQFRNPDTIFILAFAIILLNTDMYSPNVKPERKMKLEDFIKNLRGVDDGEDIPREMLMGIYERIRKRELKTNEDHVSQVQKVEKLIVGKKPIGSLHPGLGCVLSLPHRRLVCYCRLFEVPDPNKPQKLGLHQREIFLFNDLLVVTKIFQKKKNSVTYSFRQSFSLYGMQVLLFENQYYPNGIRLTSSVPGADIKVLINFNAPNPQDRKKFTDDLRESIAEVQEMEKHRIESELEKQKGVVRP
Description: A. SDS-PAGE gel of the species pulled down with GSH Sepharose-coupled GST-GluA2. On the first lane, only BRAG2 was present in the solution containing the beads. On lanes 2-4 the BRAG2 solution also contained 1 mM of different peptides. B. BRAG2 band intensities from A. normalized to the GS T-GluA2 band intensities.
Samples containing GST-GluA2 (150 μg) and BRAG2 (60 μg) were bound to Sepharose glutathione beads (20 μl). Prior to binding, the beads were washed thoroughly with interaction buffer (25 mM HEPES, 150 mM NaCl, 1 mM MgCl2, 1% Triton™ X-100, 1 mM DTT, pH=7.5). Triton™ X-100 was used to avoid nonspecific binding and to minimize the risk of protein precipitation. In a subsequent step, 3Y at different concentrations was added to the samples (1000 μM, 100 μM, 10 μM, 1 μM, 0.1 μM). A 2.5 mM solution (0.1 M PBS pH=7.4) was obtained. After incubating the samples for 90 minutes at 4 ° C. with stirring, the beads were washed with a buffer containing less Triton X-100 (25 mM HEPES, 150 mM NaCl, 1 mM MgCl2, 0.1% Triton™ X-100.1 mM DTT, pH=7.5). The species which remained trapped by the beads were analyzed by SDS-PAGE (FIG. 16).

(TAT-)p3Y-sh3: p3Ysh-3 (EGYNVpY) N-terminally fused to the TAT cell-penetrating sequence (GRKKRRQRRRPQEGYNV[pY])
spontaneous alternation percentage / working memory vs. scopolamine alone [1]: successfully countered the effect of scopolamine on working-memory
number of entries in the open arms vs. Sco-alone treated rats [2]: high number of entries in the open arms
percentage of the open arms time vs. scopolamine-alone treated rats [2]: high percentage of the open arms time
number of working memory errors vs. scopolamine-alone treated rats [3]: significant reduction in the number of working memory errors
number of reference memory errors vs. scopolamine-alone treated rats [3]: significant reduction in the number of reference memory errors
inhibition of formation of the GST-GluA2-STEP32 C/S complex [4]: significantly inhibit the interaction

(TAT-)p3Y: p3Y N-terminally fused to the TAT cell-penetrating sequence GRKKRRQRRRPQ [reference compound]
spontaneous alternation percentage / working memory vs. scopolamine alone [1]: successfully countered the effect of scopolamine on working-memory
p, Sco vs. peptide, immobility time ([5]; 15 μM, Tukey's post hoc, n=5, FIG. 12): < 0.0001
immobility time ([5]; peptide 15 μM, Sco 0.7 mg/kg): significant decline of the immobility time
p, Sco vs. peptide, number of reference memory errors ([3]; 15 μM, Tukey's post hoc, n=5, FIG. 10): < 0.01
number of working memory errors vs. scopolamine-alone treated rats [3]: significant reduction in the number of working memory errors
inhibition of formation of the GST-GluA2-STEP32 C/S complex [4]: significantly inhibit the interaction

(TAT-)p-fin 4: p-fin4 (EGYNVpYE) N-terminally fused to the TAT cell-penetrating sequence (GRKKRRQRRRPQEGYNV[pY]E)
inhibition of pY876 GluA2-FL dephosphorylation by STEP32 WT ([6]; 0.1 mM and 1 mM peptide): highest inhibition of GluA2 dephosphorylation
P, no peptide sample vs. peptide + STEP32 WT sample, pY876 band intensity ([6]; 1 mM peptide, unpaired t-test with Welch's correction): < 0.05
spontaneous alternation percentage / working memory vs. scopolamine alone [1]: successfully countered the effect of scopolamine on working-memory
number of entries in the open arms vs. Sco-alone treated rats [2]: high number of entries in the open arms
percentage of the open arms time vs. scopolamine-alone treated rats [2]: high percentage of the open arms time
number of working memory errors vs. scopolamine-alone treated rats [3]: significant reduction in the number of working memory errors
number of reference memory errors vs. scopolamine-alone treated rats [3]: significant reduction in the number of reference memory errors
inhibition of formation of the GST-GluA2-STEP32 C/S complex [4]: strongest inhibitory effect; also recorded: significantly inhibit the interaction

ATYKEGYNVYG (not fully specified (residue 10)) [3Y, reference compound]
p, Sco vs. peptide, open arms time % ([2]; 15 μM, Tukey's post hoc, n=5, FIG. 13): < 0.001
disruption of the BRAG2-GluA2 complex ([7]; 3Y in the range of concentrations 10 μM-1 mM): successfully disrupts the BRAG2-GluA2 complex

EGYNVY (Interference peptide capable of inhibiting the formation/disrupting the STEP-GluA2 complex or the GluA2-BRAG2 complex) [3Y-sh3, (uncoupled) novel 3Y-sh3 peptide, non-phosphorylated hexapeptide]
effect on the GST-GluA2-BRAG2 complex ([7]; 1 mM peptide (FIG. 17)): significant disrupting effect
